According to US20100113472A1, “COMPOUNDS FOR THE TREATMENT OF OSTEOPOROSIS AND CANCERS” (ChemoCentryx, Inc., priority 2008, published 2010):

Key:
[1] = pharmacokinetic tests conducted in animals; type: in vivo; settings: compared with related compounds of U.S. Publication No. 2007/0010524A1
[2] = test system: human peripheral blood mononuclear cells (PBMC) differentiating into osteoclasts; experiment: Inhibition of formation of osteoclasts in vitro; type: cell-based; settings: Osteoclast, 504 h, 100 nM, M-CSF and RANKL 50 ng/ml each, day 21, over the untreated control, read-out: inhibition of osteoclast formation (TRAP+ multinuclear cells)
Method: PBMC were prepared by layering human whole blood over a Ficoll ague plus (Amersham) gradient and centrifuging 45 minutes at 400 g. The interface of white cells is removed and washed twice with PBS, and placed in culture in RPMI with 10% FBS.
CCR1 is expressed on both osteoclast precursor cells and mature osteoclasts and modulates osteoclast formation and maturation. To evaluate the ability of the 1.016 compound to block osteoclast formation in vitro, human peripheral blood mononuclear cells (PBMC) were cultured in the presence of M-CSF (50 ng/ml) and RANKL (50 ng/ml), which induces the monocyte subpopulation to differentiate into giant multinucleated osteoclasts over 21 days. Compound 1.016 was added at a concentration of 100 nM to the culture media on day one and the compound/medium was changed twice weekly. On day 21, cells were fixed and stained for tartrate-resistant acid phosphatase (TRAP) (acid phosphatase leukocyte staining kit, Sigma, Mo.) and TRAP^+ multinuclear (3 or more nuclei) cells were quantified by light microscopy. Osteoclast formation in the presence of 1.016 was inhibited by ˜40% over the untreated control.

[3] = test system: Rabbit Model of Destructive Joint Inflammation; experiment: Rabbit model of destructive joint inflammation (rabbit LPS study); type: in vivo; settings: oral, 2 h before and 4 h after intra-articular LPS (10 ng); lavage 16 h after LPS
Method: A rabbit LPS study was conducted essentially as described in Podolin, et al. J. Immunol. 169(11):6435-6444 (2002). Female New Zealand rabbits (approximately 2 kilograms) were treated intra-articularly in both knees with LPS (10 ng). The compound of interest, for example 1.016, (formulated in 1% methocel) or vehicle (1% methocel) was dosed orally at a 5 ml/kg dose volume at two times (2 hours before the intra-articular LPS injection and 4 hours after the intra-articular LPS injection). Sixteen hours after the LPS injection, knees were lavaged and cells counts were performed. Beneficial effects of treatment were determined by reduction in the number of inflammatory cells recruited to the inflamed synovial fluid of the knee joints.

[4] = test system: Rat Model of Collagen Induced Arthritis; experiment: Rat model of collagen induced arthritis; type: in vivo; settings: female Lewis rats; 150 mg/kg oral, twice daily, day 9 to day 17
Method: A 17 day developing type II collagen arthritis study was conducted to evaluate the effects of a compound of interest on arthritis induced clinical ankle swelling. Rat collagen arthritis is an experimental model of polyarthritis that has been widely used for preclinical testing of numerous anti-arthritic agents (see Trentham, et al., J. Exp. Med. 146(3):857-868 (1977), Bendele, et al., Toxicologic Pathol. 27:134-142 (1999), Bendele, et al., Arthritis Rheum. 42:498-506 (1999)). The hallmarks of this model are reliable onset and progression of robust, easily measurable polyarticular inflammation, marked cartilage destruction in association with pannus formation and mild to moderate bone resorption and periosteal bone proliferation.
To measure the efficacy of CCR1 antagonists on the development of collagen induced arthritis in rats, compound 1.016 was evaluated in groups of 20 female Lewis rats. Animals were injected with 300 μl of Freund's Incomplete Adjuvant (Difco, Detroit, Mich.) containing 2 mg/ml bovine type II collagen (Elastin Products, Owensville, Mo.) at the base of the tail and 2 sites on the hack on days 0 and 6. Dosing by oral route (150 mg/kg; oral, twice daily) was initiated on day 9 of established disease (day 0 of arthritis) and continued through day 17 (day 7 of arthritis). On arthritis day 7, animals were euthanized for tissue collection. Hind paws were transected at the level of the medial and lateral malleolus, weighed and placed in formalin for microscopy. Osteoclasts were counted in 5, 400× magnification fields in ankle and knee of each joint and the mean number for the joint determined. Collagen arthritic ankles are also given scores of 0-5 (0 indicating normal and 5 indicating severe) for bone resorption according to established criteria.

## COc1cc(N2CCN(C(=O)Cn3nc(-c4ncc[nH]4)c4cccnc43)CC2)ccc1Cl [compound 1.016, 1-[4-(4-Chloro-3-methoxy-phenyl)-piperazin-1-yl]-2-[3-(1H-imidazol-2-yl)-pyrazolo[3,4-b]pyridin-1-yl]-ethanone]
[1]
  AUC: increased
  Cmax: increased
  oral bioavailability: improved
[2]
  inhibition at 0.1 µM: ~40%
[3]
  recruited inflammatory cells in synovial fluid of the knee joints: significant reduction
[4]
  bone resorption (score 0-5): reduction in bone resorption
  clinical changes associated with established type II collagen arthritis: effectively inhibited
  joint swelling assessed by caliper measurements: reduction in joint swelling
  osteoclasts in ankle and knee (histopathology): reduction of osteoclasts
